How the values were obtained:
panel of 442 kinases [1] = target: T1, panel of 442 kinases (Homo sapiens, UniProt Q13976); type: binding; details: Compound Concentration 10 µM
T1 construct: purchased KINOMEscan
T1 sequence (Q13976 1-671): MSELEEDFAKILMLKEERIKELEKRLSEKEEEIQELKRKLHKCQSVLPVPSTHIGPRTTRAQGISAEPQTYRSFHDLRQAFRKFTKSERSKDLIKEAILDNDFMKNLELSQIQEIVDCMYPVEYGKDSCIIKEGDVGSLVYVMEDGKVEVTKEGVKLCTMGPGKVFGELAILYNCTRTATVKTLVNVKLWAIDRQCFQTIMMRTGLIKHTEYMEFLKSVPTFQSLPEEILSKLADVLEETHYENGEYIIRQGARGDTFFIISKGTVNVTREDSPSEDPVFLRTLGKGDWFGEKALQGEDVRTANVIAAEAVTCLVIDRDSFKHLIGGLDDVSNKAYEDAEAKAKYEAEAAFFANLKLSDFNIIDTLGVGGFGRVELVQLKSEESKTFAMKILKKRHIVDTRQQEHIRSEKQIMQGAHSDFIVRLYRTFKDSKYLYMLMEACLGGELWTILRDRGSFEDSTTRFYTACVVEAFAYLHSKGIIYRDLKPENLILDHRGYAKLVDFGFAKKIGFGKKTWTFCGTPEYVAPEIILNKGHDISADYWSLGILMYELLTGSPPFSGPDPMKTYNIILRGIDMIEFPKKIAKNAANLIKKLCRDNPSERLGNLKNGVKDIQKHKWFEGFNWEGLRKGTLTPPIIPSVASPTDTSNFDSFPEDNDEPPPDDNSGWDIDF
Text: (§1) We assessed the selectivity of members of this scaffold using the KINOMEscan methodology across a near comprehensive panel of 442 kinases [[18,27]].

panel of 442 kinases [2] = target: T2, panel of 442 kinases (Homo sapiens, UniProt Q9UF33); type: binding; details: Compound Concentration 10 µM
T2 sequence (Q9UF33 23-1036): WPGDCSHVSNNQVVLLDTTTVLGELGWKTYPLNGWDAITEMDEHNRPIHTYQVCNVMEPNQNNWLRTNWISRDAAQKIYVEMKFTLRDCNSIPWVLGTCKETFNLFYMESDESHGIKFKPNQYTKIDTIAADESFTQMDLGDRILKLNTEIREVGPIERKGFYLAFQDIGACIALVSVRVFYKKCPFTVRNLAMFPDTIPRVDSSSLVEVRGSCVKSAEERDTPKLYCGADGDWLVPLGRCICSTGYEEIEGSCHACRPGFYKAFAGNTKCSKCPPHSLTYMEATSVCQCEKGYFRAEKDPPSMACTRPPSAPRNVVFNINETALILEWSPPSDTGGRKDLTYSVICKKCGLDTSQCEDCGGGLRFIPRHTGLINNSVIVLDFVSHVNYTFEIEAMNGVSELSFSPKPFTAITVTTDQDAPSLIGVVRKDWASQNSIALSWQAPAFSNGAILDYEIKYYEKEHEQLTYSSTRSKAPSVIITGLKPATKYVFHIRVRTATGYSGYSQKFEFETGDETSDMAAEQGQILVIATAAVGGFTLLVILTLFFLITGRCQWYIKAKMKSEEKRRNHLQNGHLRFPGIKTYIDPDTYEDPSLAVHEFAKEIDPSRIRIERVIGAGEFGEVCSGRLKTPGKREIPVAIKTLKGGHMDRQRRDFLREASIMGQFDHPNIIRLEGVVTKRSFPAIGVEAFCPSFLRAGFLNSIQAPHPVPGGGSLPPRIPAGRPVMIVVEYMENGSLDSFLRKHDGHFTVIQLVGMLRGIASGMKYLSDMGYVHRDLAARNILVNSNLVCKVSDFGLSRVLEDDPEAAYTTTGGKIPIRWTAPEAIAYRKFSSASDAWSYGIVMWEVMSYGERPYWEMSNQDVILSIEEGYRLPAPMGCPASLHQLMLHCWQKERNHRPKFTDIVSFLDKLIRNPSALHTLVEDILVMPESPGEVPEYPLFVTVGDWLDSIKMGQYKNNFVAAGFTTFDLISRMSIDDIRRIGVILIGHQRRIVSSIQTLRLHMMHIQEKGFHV
Text: as §1

Structure (SMILES)	KINOMEscan: PRKG1 (panel of 442 kinases [1])	KINOMEscan: EPHA6 (panel of 442 kinases [2])
COc1cc(C(=O)N2CCC(N3CCN(C)CC3)CC2)ccc1Nc1ncc2c(n1)N(C)c1ccccc1C(=O)N2C [15 (LRRK2-IN-1)]	98	89
COc1cc(C(=O)N2CCC(N3CCN(C)CC3)CC2)ccc1Nc1ncc2c(n1)N1CCc3cccc(c31)C(=O)N2C [Compound 24]		97
COc1cc(C(=O)N2CCC(N3CCN(C)CC3)CC2)ccc1Nc1ncc2c(n1)N(C1CCCC1)c1ccccc1C(=O)N2C [Compound 25, 11-cyclopentyl-2-((2-methoxy-4-(4-(4-methylpiperazin-1-yl)piperidine-1-carbonyl)phenyl)amino)-5-methyl-5H-benzo[e]pyrimido[5,4-b][1,4]diazepin-6(11H)-one]	100	100
CCOc1cc(C(=O)N2CCC(N3CCN(C)CC3)CC2)ccc1Nc1ncc2c(n1)N(C1CCCC1)c1ccccc1C(=O)N2C [Compound 26]	100	100

— publication PMC3914206
